Reference: US20220381657A1, “METHOD FOR PREPARING BIOLOGICAL MATERIAL HAVING EXCELLENT LIGHT-TRANSMITTING PROPERTY” (RIKEN, priority 2016, published 2022)
Where two headings read alike, the source gives them in different places. Values belong to the compound of their own block, whether it stands above or below them.

How the values were obtained:
[1] = tested on: fixed brain tissue suspension; assay: 1st delipidation assay: solubilization of fixed brain tissue suspension, turbidity at 600 nm; set-up: species or system mice
Experimental: Specifically, brains taken out of mice were sheared with a utility knife and then were disrupted by ultrasonication. To each of the resultant suspensions, an equal volume of 8% PFA solution was added to perform fixation at 4° C. for 1 hour. The resultant mixture was centrifuged to remove the supernatant, and the fixed brain tissue was washed with PBS for 3 times. PBS was added so as to obtain 2 mL of a fixed brain tissue suspension per brain. The fixed brain tissue suspension was diluted by 3.5 folds. To 20 μL of the resultant suspension, 130 μL of each 10 wt % chemical was added and was shaken at 37° C. overnight. Thus obtained mixed solutions were subjected to absorbance (turbidity) measurement at 600 nm. It is expected that a chemical solution which reduces the turbidity of a fixed brain suspension allows reducing light scattering by solubilizing lipids, which act as a scattering factor, in the brain tissue.

[2] = for OD400: Table 1; for 400 nm: OD at 400 nm of the chemical
[3] = tested on: bovine coagulated blood; assay: Decoloring screening: heme eluted from bovine coagulated blood (OD420-OD700); conditions: decolorization; for 700 nm calibrated 420 nm Average: OD420 calibrated by OD700; for integrated value 500-700 nm Average: integrated absorbance 500-700 nm
Experimental: A high-throughput screening system for evaluating the decoloring ability of various compounds was constructed. The screening system involved adding an aqueous solution of each compound to bovine coagulated blood and then measuring the absorbance of heme collected in the supernatant.
Specifically, to bovine blood, an equal amount of 8% PFA solution was added, and reacted at 4° C. overnight. The mixed liquid was centrifuged at 1500×g for 5 minutes, and the supernatant containing PFA was discarded. Then, the same amount of PBS as the original volume of blood was added to prepare a coagulated blood sample. To 150 μL of 10 wt % aqueous solution of each compound, 50 μL of the coagulated blood sample was added, and reacted at 37° C. overnight. The reaction solution was centrifuged at 1500×g for 5 minutes, and then 100 μL of the supernatant was added to a plate so as to be subjected to absorbance measurement. A sample which is suspended in water instead of being dissolved in the water has a weak decoloring effect, but none the less has a high absorbance value. […]

[4] = tested on: Serius; conditions: relative fluorescence
[5] = Table 1, 10 wt % chemical, fixed mouse brain suspension, 37° C. overnight, PBS = 1.000

Compound: NCCCCCO [#0003]
700 nm calibrated 420 nm Average [3]: 1.83 | integrated value 500-700 nm Average [3]: 1.21 | Fluorescence quench Average [4]: 0.63 | 400 nm [2]: 0.052 | pH ([…]): 12.5

Compound: CN1C2CCC1CC(O)C2 (stereo not shown) [#1462, Tropine]
1st delipidation assay Relative OD600 [1, 5]: 0.292

Compound: NCCCCCCO [#0007, 6-Amino-1-hexanol]
700 nm calibrated 420 nm Average [3]: 2.66 | integrated value 500-700 nm Average [3]: 1.76 | Fluorescence quench Average [4]: 0.22 | 400 nm [2]: 0.093 | pH ([…]): 11.9

Compound: Polyethylene glycol mono-4-octylphenyl ether [#1103]
1st delipidation assay Relative OD600 [1]: 0.184

Compound: Triton ™ X-100 [reference compound]
1st delipidation assay Relative OD600 [1, 5]: 0.240

Compound: Isobutylamine [#1043]
1st delipidation assay Relative OD600 [1, 5]: 0.251

Compound: CCCCCCCCCCCCOS(=O)(=O)[O-].[Li+] [#1310, Lithium dodecyl sulfate]
1st delipidation assay Relative OD600 [1, 5]: 0.155

Compound: CCCCCCCCCCCCOS(=O)(=O)[O-].[Na+] [#1035, Sodium dodecyl sulfate]
700 nm calibrated 420 nm Average [3]: 1.28 | integrated value 500-700 nm Average [3]: 1.32 | Fluorescence quench Average [4]: 1.15 | 400 nm [2]: 0.048 | OD400 [2]: 0.048 | pH (Table 1): 6.3 | pH ([…]): 6.3

Compound: C[N+](C)(C)Cc1ccccc1.[OH-] [#0387, Benzyltrimethyl- ammonium Hydroxide]
700 nm calibrated 420 nm Average [3]: 3.14 | integrated value 500-700 nm Average [3]: 2.56 | Fluorescence quench Average [4]: 0.00 | 400 nm [2]: 0.054 | OD400 [2]: 0.054 | pH (Table 1): 13.8 | pH ([…]): 13.8

Compound: C1CCNCC1 [#1097, Piperidine]
1st delipidation assay Relative OD600 [1, 5]: 0.166

Compound: NCCCNCCNCCCN [#0277, N,N′-Bis(3-aminopropyl) ethylenediamine]
700 nm calibrated 420 nm Average [3]: 1.20 | integrated value 500-700 nm Average [3]: 0.83 | Fluorescence quench Average [4]: 0.71 | 400 nm [2]: 0.053 | pH ([…]): 13.1

Compound: N.O=C(O)C(F)(F)C(F)(F)C(F)(F)C(F)(F)C(F)(F)C(F)(F)C(F)(F)F [#1162, Ammonium pentadecafluorooctanoate]
1st delipidation assay Relative OD600 [1, 5]: 0.318

Compound: Nonidet P-40 [#1511]
1st delipidation assay Relative OD600 [1]: 0.193

Compound: NCCCCO [#0006]
700 nm calibrated 420 nm Average [3]: 1.22 | integrated value 500-700 nm Average [3]: 0.82 | Fluorescence quench Average [4]: 0.64 | 400 nm [2]: 0.06 | pH ([…]): 12.3

Compound: C[C@H](CCC(=O)O)[C@H]1CC[C@H]2[C@@H]3[C@H](O)C[C@@H]4C[C@H](O)CC[C@]4(C)[C@H]3C[C@H](O)[C@]12C [#0566, Sodium Cholate]
1st delipidation assay Relative OD600 [1]: 0.254

Compound: Isopropylamine [#1006]
1st delipidation assay Relative OD600 [1, 5]: 0.318

Further lines, with some results ahead:

OD400 [2]: 0.085 | pH (Table 1): 10.5
Compound: CN1CCCC1 [#1295, 1-Methylpyrrolidine]
1st delipidation assay Relative OD600 [1, 5]: 0.325

400 nm [2]: 0.048 | pH ([…]): 11.7
Compound: OCCN(CCO)CCN(CCO)CCO [#1537, N,N,N′,N′-Tetrakis(2-hydroxyethyl) ethylenediamine]
700 nm calibrated 420 nm Average [3]: 1.29 | integrated value 500-700 nm Average [3]: 1.63 | Fluorescence quench Average [4]: 0.66

OD400 [2]: 0.052 | pH (Table 1): 12.7
Compound: CC(C)(C)N(CCO)CCO [#0390, N-tert- Butyldiethanolamine]
1st delipidation assay Relative OD600 [1, 5]: 0.318

OD400 [2]: 0.055 | pH (Table 1): 9.6
Compound: CC(C)CCN [#1038, Isoamylamine]
1st delipidation assay Relative OD600 [1, 5]: 0.247

400 nm [2]: 0.08 | OD400 [2]: 0.08 | pH (Table 1): 12.9 | pH ([…]): 12.9
Compound: CC(CN)CCCN (stereo not shown) [#1267, 2-Methyl-1,5-diaminopentane]
700 nm calibrated 420 nm Average [3]: 1.48 | integrated value 500-700 nm Average [3]: 1.09 | Fluorescence quench Average [4]: 0.51

400 nm [2]: 0.05 | pH ([…]): 14.1
Compound: OCCCC1CCN(CCO)CC1 [#1226, 1-(2-Hydroxyethyl)-4-(3-hydroxypropyl) piperidine]
700 nm calibrated 420 nm Average [3]: 2.20 | integrated value 500-700 nm Average [3]: 2.29 | Fluorescence quench Average [4]: 0.76

400 nm [2]: 0.049 | pH ([…]): 12.9
Compound: NCC1CCOCC1 [#0467, 4-Aminomethyl-tetrahydropyran]
700 nm calibrated 420 nm Average [3]: 1.52 | integrated value 500-700 nm Average [3]: 1.13 | Fluorescence quench Average [4]: 0.65

400 nm [2]: 0.053 | OD400 [2]: 0.053 | pH (Table 1): 10.3 | pH ([…]): 10.3
Compound: CC(=O)O.CCCCCCCCCCCCN [#0627, Dodecylamine acetate]
700 nm calibrated 420 nm Average [3]: 2.21 | integrated value 500-700 nm Average [3]: 1.74 | Fluorescence quench Average [4]: 1.05

400 nm [2]: 0.051 | pH ([…]): 13.6
Compound: CCN(CC)CCN [#0779, N,N-Diethyl-ethylenediamine]
700 nm calibrated 420 nm Average [3]: 1.39 | integrated value 500-700 nm Average [3]: 0.81 | Fluorescence quench Average [4]: 0.70

400 nm [2]: 0.054 | OD400 [2]: 0.054 | pH (Table 1): 7.9 | pH ([…]): 7.9
Compound: C[C@H](CCC(=O)[O-])[C@H]1CC[C@H]2[C@@H]3CC[C@@H]4C[C@H](O)CC[C@]4(C)[C@H]3C[C@H](O)[C@]12C.[Na+] [#1507, Sodium deoxycholate]
700 nm calibrated 420 nm Average [3]: 1.27 | integrated value 500-700 nm Average [3]: 1.03 | Fluorescence quench Average [4]: 1.03

400 nm [2]: 0.05 | pH ([…]): 14.0
Compound: NCCCCN [#0783]
700 nm calibrated 420 nm Average [3]: 2.21 | integrated value 500-700 nm Average [3]: 1.42 | Fluorescence quench Average [4]: 0.60

OD400 [2]: 0.056 | pH (Table 1): 5.9
Compound: CCCCCCCCCCCS(=O)(=O)[O-].[Na+] [#1419, Sodium 1-undecanesulfonate]
1st delipidation assay Relative OD600 [1, 5]: 0.124

OD400 [2]: 0.065 | pH (Table 1): 5.7
Compound: Tween ® 80 [#1460]
1st delipidation assay Relative OD600 [1, 5]: 0.095

400 nm [2]: 0.054 | pH ([…]): 12.8
Compound: NCC(O)CN [#1062]
700 nm calibrated 420 nm Average [3]: 1.13 | integrated value 500-700 nm Average [3]: 0.80 | Fluorescence quench Average [4]: 0.67

400 nm [2]: 0.049 | pH ([…]): 13.6
Compound: CCC(N)CCN (stereo not shown) [#0678]
700 nm calibrated 420 nm Average [3]: 1.71 | integrated value 500-700 nm Average [3]: 1.15 | Fluorescence quench Average [4]: 0.60

400 nm [2]: 0.055 | pH ([…]): 8.4
Compound: CCCCCCCCCCCC[N+](C)(C)CCCS(=O)(=O)[O-] [#0694]
700 nm calibrated 420 nm Average [3]: 2.24 | integrated value 500-700 nm Average [3]: 2.53 | Fluorescence quench Average [4]: 1.09

400 nm [2]: 0.052 | pH ([…]): 10.4
Compound: NC(=O)c1cccnc1 [#0855, nicotinamide]
700 nm calibrated 420 nm Average [3]: 2.63 | integrated value 500-700 nm Average [3]: 2.45 | Fluorescence quench Average [4]: 0.75

400 nm [2]: 0.055 | pH ([…]): 2.9
Compound: OCCCCCBr [#1367]
700 nm calibrated 420 nm Average [3]: 1.48 | integrated value 500-700 nm Average [3]: 0.06 | Fluorescence quench Average [4]: −0.01
